Measured values from PMC8703466, “Unravelling the Interaction of Piperlongumine with the Nucleotide-Binding Domain of HSP70: A Spectroscopic and In Silico Study” (Pharmaceuticals, 2021).

Molecular target: T1, nucleotide-binding domain of heat shock protein 70 (NBD/HSP70) (Homo sapiens, UniProt P0DMV8)
T1 construct: gene HSPA1A
Test: intrinsic Trp90 fluorescence quenching titration (steady-state, IDF/Hill fit), supported by time-resolved fluorescence; CD
Details: read-out: intrinsic Trp90 fluorescence quenching titration (steady-state, IDF/Hill fit), s

T1 sequence (P0DMV8 1-382 limits assumed): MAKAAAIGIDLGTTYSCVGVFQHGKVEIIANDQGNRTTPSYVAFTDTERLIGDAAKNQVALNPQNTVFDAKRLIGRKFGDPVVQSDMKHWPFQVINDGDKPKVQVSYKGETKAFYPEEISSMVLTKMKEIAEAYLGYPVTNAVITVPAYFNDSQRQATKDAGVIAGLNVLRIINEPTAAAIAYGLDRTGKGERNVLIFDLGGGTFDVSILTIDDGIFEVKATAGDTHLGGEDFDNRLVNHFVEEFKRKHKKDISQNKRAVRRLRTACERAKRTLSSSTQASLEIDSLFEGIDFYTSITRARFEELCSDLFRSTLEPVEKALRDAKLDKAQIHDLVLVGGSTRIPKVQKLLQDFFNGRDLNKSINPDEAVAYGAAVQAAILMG

COc1cc(/C=C/C(=O)N2CCC=CC2=O)cc(OC)c1OC [PPL, Piperlongumine]
Kd: 15.9 µM
